In patent US7605154B2, “Substituted Thiazolo [4,5-d]pyrimidines as protein kinase inhibitors” (Janssen Pharmaceutica N.V., priority 2005, dated 2009) one finds IC50 data, which are given here for 30 compounds.

The IC50 is the concentration that gives 50% inhibition. A low value points to higher potency.

For the experiment, the target named is T1, EGFR (Homo sapiens, UniProt P00533).
T1 construct: started at nucleotide 2189 (corresponding to amino acid 667) and ended at the termination codon; made in house; host or cells: Sf9 insect cells (baculovirus)
T1 sequence (P00533 667-1210 limits assumed): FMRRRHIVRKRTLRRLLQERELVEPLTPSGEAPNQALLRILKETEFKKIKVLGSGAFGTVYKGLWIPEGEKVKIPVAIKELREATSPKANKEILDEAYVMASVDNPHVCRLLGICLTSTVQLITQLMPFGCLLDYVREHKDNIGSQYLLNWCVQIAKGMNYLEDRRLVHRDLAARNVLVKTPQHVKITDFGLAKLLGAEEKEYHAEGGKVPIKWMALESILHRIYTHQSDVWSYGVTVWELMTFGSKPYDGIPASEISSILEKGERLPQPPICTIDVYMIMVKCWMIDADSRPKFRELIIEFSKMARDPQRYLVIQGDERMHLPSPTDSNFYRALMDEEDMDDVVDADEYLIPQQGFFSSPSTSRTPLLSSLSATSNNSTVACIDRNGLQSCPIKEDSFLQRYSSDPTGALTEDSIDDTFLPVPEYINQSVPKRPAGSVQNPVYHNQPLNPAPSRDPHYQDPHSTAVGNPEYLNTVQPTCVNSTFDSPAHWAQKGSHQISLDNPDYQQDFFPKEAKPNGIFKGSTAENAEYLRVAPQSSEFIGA
Nature of the experiment: EGFR Kinase Assay. It is filed as biochemical. Particulars: GST-EGFR, 5 μM ATP. From the text:
The portion was PCR amplified with primers that added the lambda attB sequences to each end, recombined into an entry vector, then into a, GST destination vector (as described in Gateway Technologies Manual by Invitrogen Corporation, Carlsbad, Calif.).
The destination vector was recombined in the DH10BAC strain of bacteria to produce a bacmid. The bacmid was transfected into Sf 9 cells and the supernatant containing the baculovirus was collected. The GSTEGFR protein was purified using large cultures of Sf 9 cells infected with stock virus. After an appropriate period of time, the cells were collected and lysed. The GSTEGFR was then purified from the lysate on Glutathione-Sepharose columns (as described by Amersham Biosciences, Buckinghamshire, United Kingdom).
The free biotin was separated from the biotinylated polyGluTyr on a gel filtration column.
A mixture of a 10× kinase buffer (500 mM Tris at pH 8.0, 100 mM Magnesium Chloride and 1 mM Sodium Vanadate), DTT (1 mM final from 500 mM stock), ATP (5 μM final from 10 mM stock), biotinylated polyGluTyr (10 μg/μL stock), γ-^33P ATP (10 μCi/μL stock) and water was added to each well (90 μL/well) of a Streptavidin Flashplate (Perkin Elmer, Wellesley, Mass.).
Test compound in 100% DMSO (2 μL) was added to the appropriate wells. Diluted GSTEGFR (1:300 dilution in 50 mM Tris at pH 8.0 and 0.1% bovine serum albumin) (10 μL) was added to the wells to initiate the reactions.
The plates were incubated at 30° C. for 1 hr with shaking. The reacted contents were removed and the plates were sequentially washed three times with a 1×PBS stop buffer (300 μL without Magnesium and Calcium) and 100 mM EDTA. After the final wash, the same stop buffer (200 μL) was added to the wells. The plates were then sealed and read on the TopCount scintillation counter.
Test compounds were assayed in triplicate at 16 concentrations at half-log dilutions starting at 200 uM. A maximum and minimum signal for the assay was determined on each plate. The percent inhibition of a test compound was calculated according to the formula
For a series of test concentrations, the IC50 was derived by graphing percent inhibition against the log of the concentrations tested for a given compound.

Turning to `Clc1cccc(Nc2ncnc3nc(Nc4cccc(CN5CCCCC5)c4)sc23)c1` [Cpd 8, N^7-(3-chloro-phenyl)-N^2-(3-piperidin-1-ylmethyl-phenyl)-thiazolo[4,5-d]pyrimidine-2,7-diamine], it took 34.7 nM to reach half-maximal inhibition (IC50).

In turn, `CCOC(=O)N1CCN(Cc2ccc(Nc3nc4ncnc(Nc5ccc(F)c(Cl)c5)c4s3)cc2)CC1` [Cpd 28, 4-{4-[7-(3-chloro-4-fluoro-phenylamino)-thiazolo[4,5-d]pyrimidin-2-ylamino]-benzyl}-piperazine-1-carboxylic acid ethyl ester] displayed an IC50 of 57 nM.

Compound `COC[C@@H]1CCCN1Cc1ccc(Nc2nc3ncnc(Nc4ccc(F)c(Cl)c4)c3s2)cc1` [Cpd 26, N^7-(3-chloro-4-fluoro-phenyl)-N^2-[4-(2S)-(2-methoxymethyl-pyrrolidin-1-ylmethyl)-phenyl]-thiazolo[4,5-d]pyrimidine-2,7-diarmine] showed an IC50 of 11.8 nM.

Regarding `C#Cc1cccc(Nc2ncnc3nc(Nc4ccc(CN(C)C5CCOCC5)cc4)sc23)c1` [Cpd 63], half-maximal inhibition (IC50) required 10.7 nM.

Regarding `C#Cc1cccc(Nc2ncnc3nc(Nc4ccc(CN5CCN(C)CC5)cc4)sc23)c1` [Cpd 47, N^7-(3-ethynyl-phenyl)-N^2-[4-(4-methyl-piperazin-1-ylmethyl)-phenyl]-thiazolo[4,5-d]pyrimidine-2,7-diamine], the IC50 was 18.2 nM.

The compound `CC(C)OCCNCc1ccc(Nc2nc3ncnc(Nc4ccc(F)c(Cl)c4)c3s2)cc1` [Cpd 53, N^7-(3-chloro-4-fluoro-phenyl)-N^2-{-4-[(2-isopropoxy-ethylamino)-methyl]-phenyl}-thiazolo[4,5-d]pyrimidine-2,7-diamine] gave an IC50 of 7.73 nM.

As to `C#Cc1cccc(Nc2ncnc3nc(Nc4ccc(OC)nc4)sc23)c1` [Cpd 69, N^7-(3-ethynyl-phenyl)-N^2-(6-methoxy-pyridin-3-yl)-thiazolo[4,5-d]pyrinidine-2,7-diamine], the IC50 was 28.6 nM.

In turn, `NS(=O)(=O)c1ccc(Nc2nc3ncnc(Nc4ccc(N5CCOCC5)c(Cl)c4)c3s2)cc1` [Cpd 83, 4-[7-(3-chloro-4-(morpholin-4-yl)-phenylamino)-thiazolo[4,5-d]pyrimidin-2-ylamino]-benzenesulfonamide] had an IC50 of 3800 nM.

Take `c1ccc(Cn2ncc3ccc(Nc4ncnc5nc(Nc6ccc(CN7CCOCC7)cc6)sc45)cc32)cc1` [Cpd 36, N^7-(1-benzyl-1H-indazol-6-yl)-N^2-(4-morpholin-4-ylmethyl-phenyl)-thiazolo[4,5-d]pyrimidine-2,7-diamine]: the IC50 was 1020 nM.

The compound `Fc1ccc(Nc2ncnc3nc(Nc4ccc(OCCN5CCOCC5)cc4)sc23)cc1Cl` [Cpd 14, N^7-(3-chloro-4-fluoro-phenyl)-N^2-[4-(2-morpholin-4-yl-ethoxy)-phenyl]-thiazolo[4,5-d]pyrimidine-2,7-diamine] returned an IC50 of 59.4 nM.

On to `C#Cc1cccc(Nc2ncnc3nc(Nc4ccc(CN5CCC[C@@H]5CO)cc4)sc23)c1` [Cpd 54, (2R)-(1-{4-[7-(3-ethynyl-phenylamino)-thiazolo[4,5-d]pyrimidin-2-ylamino]-benzyl}-pyrrolidin-2-yl)-methanol], for which 10 nM corresponded to half-maximal inhibition (IC50).

`C#Cc1cccc(Nc2ncnc3nc(Nc4ccc(CN5CCCCC5)cc4)sc23)c1` [Cpd 43, N^7-(3-ethynyl-phenyl)-N^2-(4-piperidin-1-ylmethyl-phenyl)-thiazolo[4,5-d]pyrimidine-2,7-diamine] gave an IC50 of 7.8 nM.

`NS(=O)(=O)c1ccc(Nc2nc3ncnc(Nc4ccc(Cl)cc4F)c3s2)cc1` [Cpd 76, 4-[7-(4-chloro-2-fluoro-phenylamino)-thiazolo[4,5-d]pyrimidin-2-ylamino]-benzenesulfonamide]: it took 40.2 nM to reach half-maximal inhibition (IC50).

On to `NCC1CCN(Cc2ccc(Nc3nc4ncnc(Nc5ccc(F)c(Cl)c5)c4s3)cc2)CC1` [Cpd 22, N^2-[4-(4-aminomethyl-piperidin-1-ylmethyl)-phenyl]-N^7-(3-chloro-4-fluoro-phenyl)-thiazolo[4,5-d]pyrimidine-2,7-diamine], for which the IC50 was 9.3 nM.

Compound `C#Cc1cccc(Nc2ncnc3nc(Nc4ccc(CCN5CCOCC5)cc4)sc23)c1` [Cpd 50, N^7-(3-ethynyl-phenyl)-N^2-[4-(2-morpholin-4-yl-ethyl)-phenyl]-thiazolo[4,5-d]pyrimidine-2,7-diamine] displayed an IC50 of 13 nM.

`O=S(=O)(c1ccc(Nc2nc3ncnc(Nc4ccc(F)c(Cl)c4)c3s2)cc1)N1CCOCC1` [Cpd 46, N^7-(3-chloro-4-fluoro-phenyl)-N^2-[4-(morpholine-4-sulfonyl)-phenyl]-thiazolo[4,5-d]pyrimidine-2,7-diamine] came in with an IC50 of 15.5 nM.

The compound `C#Cc1cccc(Nc2ncnc3nc(Nc4ccc(CN(C)C)cc4)sc23)c1` [Cpd 49, N^2-(4-dimethylaminomethyl-phenyl)-N^7-(3-ethynyl-phenyl)-thiazolo[4,5-d]pyriridine-2,7-diamine] had an IC50 of 11.8 nM.

In turn, `Clc1cccc(Nc2ncnc3nc(Nc4ccc(CN5CCOCC5)cc4)sc23)c1` [Cpd 57, N^7-(3-chloro-phenyl)-N^2-(4-morpholin-4-ylmethyl-phenyl)-thiazolo[4,5-d]pyrimidine-2,7-diamine] displayed an IC50 of 7 nM.

As for `Fc1ccc(Nc2ncnc3nc(Nc4ccc(CNC[C@H]5CCCO5)cc4)sc23)cc1Cl` [Cpd 67, N^7-(3-chloro-4-fluoro-phenyl)-N^2-(4-{[(2R)-(tetrahydro-furan-2-ylmethyl)-amino]-methyl}-phenyl)-thiazolo[4,5-d]pyrimidine-2,7-diamine], half-maximal inhibition (IC50) was put at 3.7 nM.

Regarding `N#Cc1ccc(Nc2nc3ncnc(Nc4ccc(F)c(Cl)c4)c3s2)cc1` [Cpd 92, 4-[7-(3-chloro-4-fluoro-phenylamino)-thiazolo[4,5-d]pyrimidin-2-ylamino]-benzonitrile], half-maximal inhibition (IC50) was put at 15.4 nM.

For `Fc1ccc(Nc2ncnc3nc(NCCCN4CCOCC4)sc23)cc1Cl` [Cpd 52, N^7-(3-chloro-4-fluoro-phenyl)-N^2-(3-morpholin-4-yl-propyl)-thiazolo[4,5-d]pyrimidine-2,7-diamine], it took 698 nM to reach half-maximal inhibition (IC50).

As for `CCc1nccn1Cc1ccc(Nc2nc3ncnc(Nc4ccc(F)c(Cl)c4)c3s2)cc1` [Cpd 30, N^7-(3-chloro-4-fluoro-phenyl)-N^2-[4-(2-ethyl-imidazol-1-ylmethyl)-phenyl]-thiazolo[4,5-d]pyrimidine-2,7-diamine], the midpoint of inhibition, the IC50, lay at 5.5 nM.

In turn, `O=[N+]([O-])c1cc(Nc2ncnc3nc(Nc4ccc(CN5CCOCC5)cc4)sc23)ccc1F` [Cpd 65, N^7-(4-fluoro-3-nitro-phenyl)-N^2-(4-morpholin-4-ylmethyl-phenyl)-thiazolo[4,5-d]pyrimidine-2,7-diamine] returned an IC50 of 43.4 nM.

As to `O=S(=O)(NCCCN1CCOCC1)c1ccc(Nc2nc3ncnc(Nc4ccc(F)c(Cl)c4)c3s2)cc1` [Cpd 41, 4-[7-(3-chloro-4-fluoro-phenylamino)-thiazolo[4,5-d]pyrimidin-2-ylamino]-N-(3-morpholin-4-yl-propyl)-benzenesulfonamide], the IC50 came to 10 nM.

In turn, `Clc1cccc(Nc2ncnc3nc(Nc4ccccc4)sc23)c1` [Cpd 89, N^7-(3-chloro-phenyl)-N^2-phenyl-thiazolo[4,5-d]pyrirnidine-2,7-diamine] came in with an IC50 of 27.1 nM.

Compound `NS(=O)(=O)c1ccc(Nc2nc3ncnc(Nc4cccc(Br)c4)c3s2)cc1` [Cpd 78, 4-[7-(3-bromo-phenylamino)-thiazolo[4,5-d]pyrimidin-2-ylamino]-benzenesulfonamide] returned an IC50 of 10.5 nM.

In the case of `Fc1ccc(Nc2ncnc3nc(Nc4cccc(CN5CCOCC5)c4)sc23)cc1Cl` [Cpd 3, N^7-(3-chloro-4-fluoro-phenyl)-N^2-(3-morpholin-4-ylmethyl-phenyl)-thiazolo[4,5-d]pyrimidine-2,7-diamine], inhibition was half-maximal at 119 nM (IC50).

In turn, `C#Cc1cccc(Nc2ncnc3nc(Nc4ccc(CN5CCCC5)cc4)sc23)c1` [Cpd 42, N^7-(3-ethynyl-phenyl)-N^2-(4-pyrrolidin-1-ylmethyl-phenyl)-thiazolo[4,5-d]pyrimidine-2,7-diamine] gave an IC50 of 5.42 nM.

Regarding `Fc1ccc(Nc2ncnc3nc(Nc4ccc(OCCCN5CCN(c6ccc(Cl)cc6)CC5)cc4)sc23)cc1Cl` [Cpd 16, N^7-(3-chloro-4-fluoro-phenyl)-N^2-(4-{3-[4-(4-chloro-phenyl)-piperazin-1-yl]-propoxy}-phenyl)-thiazolo[4,5-d]pyrimidine-2,7-diamine], the IC50 came to 165 nM.

For the compound `C#Cc1cccc(Nc2ncnc3nc(Nc4ccc(CN(CC(C)O)CC(C)O)cc4)sc23)c1` (stereo not drawn) [Cpd 61, 1-[{4-[7-(3-ethynyl-phenylamino)-thiazolo[4,5-d]pyrimidin-2-ylamino]-benzyl}-(2-hydroxy-propyl)-amino]-propan-2-ol], inhibition was half-maximal at 27.5 nM (IC50).
